# From ChEMBL document CHEMBL5727241, “Benzazepine dicarboxamide compounds with tertiary amide function” (2019)
# pEC50: −log10 of the molar value.
# What was measured:
# [1] = biological target: T1, Toll-like receptor 8 (Homo sapiens, UniProt Q9NR97); assay: (§1) Pharmacological Assay: For TLR8 and TLR7 activity testing, HEK-Blue human TLR8 or TLR7 cells (Invivogen, San Diego, Calif., USA) are used, respectively. These cells are designed for studying the stimulation of human TLR8 or TLR7 by monitoring the activation of NF-κB. A SEAP (secreted embryonic alkaline phosphatase) reporter gene is placed under the control of the IFN-b minimal promoter fused to five NF-κB and AP-1-binding sites. Therefore the reporter expression is regulated by the NF-κB promoter upon stimulation of human TLR8 or TLR7 for 20 hours. The cell culture supernatant SEAP reporter activity was determined using Quanti Blue kit (Invivogen, San Diego, Ca, USA) at a wavelength of 640 nm, a detection medium that turns purple/blue in the presence of alkaline phosphatase.
# T1 sequence (Q9NR97 whole entry): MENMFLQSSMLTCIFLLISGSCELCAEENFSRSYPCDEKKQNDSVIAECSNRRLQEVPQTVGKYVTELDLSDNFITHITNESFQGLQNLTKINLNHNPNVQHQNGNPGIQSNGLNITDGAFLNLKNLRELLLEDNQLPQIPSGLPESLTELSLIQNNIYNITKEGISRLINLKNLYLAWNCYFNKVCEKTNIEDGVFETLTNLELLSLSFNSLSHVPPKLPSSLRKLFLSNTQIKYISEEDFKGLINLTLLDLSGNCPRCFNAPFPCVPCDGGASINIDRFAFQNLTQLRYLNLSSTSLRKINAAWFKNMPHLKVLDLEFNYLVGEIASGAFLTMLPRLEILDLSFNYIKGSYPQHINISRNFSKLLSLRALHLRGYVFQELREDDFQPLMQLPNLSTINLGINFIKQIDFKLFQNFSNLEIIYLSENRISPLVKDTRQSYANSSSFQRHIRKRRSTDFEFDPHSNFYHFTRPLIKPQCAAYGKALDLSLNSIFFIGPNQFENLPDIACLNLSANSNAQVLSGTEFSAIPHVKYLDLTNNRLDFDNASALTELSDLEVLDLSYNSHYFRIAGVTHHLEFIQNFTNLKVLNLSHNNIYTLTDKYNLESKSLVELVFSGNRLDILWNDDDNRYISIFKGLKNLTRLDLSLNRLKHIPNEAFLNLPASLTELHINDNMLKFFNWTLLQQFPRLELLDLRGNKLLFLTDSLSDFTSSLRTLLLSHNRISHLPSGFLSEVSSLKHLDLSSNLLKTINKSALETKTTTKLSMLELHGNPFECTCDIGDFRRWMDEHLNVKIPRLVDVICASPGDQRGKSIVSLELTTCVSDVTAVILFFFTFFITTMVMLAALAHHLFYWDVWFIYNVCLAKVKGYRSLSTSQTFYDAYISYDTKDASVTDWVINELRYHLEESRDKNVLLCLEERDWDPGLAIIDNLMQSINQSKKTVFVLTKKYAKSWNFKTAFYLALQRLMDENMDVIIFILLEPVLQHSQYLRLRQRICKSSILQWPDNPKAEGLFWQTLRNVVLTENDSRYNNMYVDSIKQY
# [2] = biological target: T2, Toll-like receptor 7 (Homo sapiens, UniProt Q9NYK1); assay: as §1
# T2 sequence (Q9NYK1 whole entry): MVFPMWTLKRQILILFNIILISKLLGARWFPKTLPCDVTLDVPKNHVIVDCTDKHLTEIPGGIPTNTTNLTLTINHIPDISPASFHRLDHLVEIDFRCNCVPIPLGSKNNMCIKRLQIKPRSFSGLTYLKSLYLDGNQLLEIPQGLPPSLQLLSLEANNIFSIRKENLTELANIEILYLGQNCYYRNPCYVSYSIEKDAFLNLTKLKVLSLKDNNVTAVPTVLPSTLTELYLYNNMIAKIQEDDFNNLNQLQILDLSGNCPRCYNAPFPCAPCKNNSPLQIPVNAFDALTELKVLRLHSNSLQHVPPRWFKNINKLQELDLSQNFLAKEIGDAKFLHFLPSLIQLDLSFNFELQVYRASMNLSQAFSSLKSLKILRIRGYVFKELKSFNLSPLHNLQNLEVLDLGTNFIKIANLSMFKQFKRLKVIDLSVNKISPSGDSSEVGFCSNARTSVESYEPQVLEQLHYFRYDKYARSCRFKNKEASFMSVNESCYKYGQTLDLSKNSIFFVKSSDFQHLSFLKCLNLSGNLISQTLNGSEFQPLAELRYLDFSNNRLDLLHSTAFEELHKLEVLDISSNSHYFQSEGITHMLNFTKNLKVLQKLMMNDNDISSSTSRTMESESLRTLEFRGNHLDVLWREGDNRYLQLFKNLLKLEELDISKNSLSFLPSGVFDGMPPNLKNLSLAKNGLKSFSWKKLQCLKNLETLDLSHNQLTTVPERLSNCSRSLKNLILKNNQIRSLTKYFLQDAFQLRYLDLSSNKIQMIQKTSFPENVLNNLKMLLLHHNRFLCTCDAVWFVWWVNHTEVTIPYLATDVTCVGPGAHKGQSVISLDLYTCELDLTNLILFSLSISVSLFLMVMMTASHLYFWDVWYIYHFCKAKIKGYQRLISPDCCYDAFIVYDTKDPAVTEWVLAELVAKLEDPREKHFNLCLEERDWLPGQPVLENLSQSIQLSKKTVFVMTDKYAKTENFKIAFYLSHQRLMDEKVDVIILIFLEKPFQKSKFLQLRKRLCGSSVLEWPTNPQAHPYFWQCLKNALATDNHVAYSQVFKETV
structure (smiles),measurement,setting,value
CCCN(CCC)C(=O)C1=Cc2ccc(C(=O)N3CC(OCc4ccccc4)C3)cc2N=C(N)C1,pEC50,[1],8.40
same,pEC50,[2],4.82
